{
  "source": "patent US20040038855A1",
  "about": "(priority 1999, published 2004)",
  "key": {"[1]": {"test_system": "micturition reflex, anesthetized female Sprague Dawley rats", "test": "Distension-induced rhythmic contraction (DIRC) model", "format": "in vivo, rat", "parameters": "key: A = Produced a significant increase in contraction interval relative to pre-drug interval", "settings": "contraction interval, i.v. or i.p.", "protocol": "The effects of compounds on the micturition reflex were assessed in the “distension-induced rhythmic contraction” (DIRC), as described in previous publications (e.g. Maggi et al, 1987; Morikawa et al, 1992), and Continuous Slow Transvesicular Infusion (CSTI) models in rats.\nFemale Sprague Dawley rats weighing approximately 300 g were anesthetized with subcutaneous urethane (1.2 g/kg). The trachea was cannulated with PE240 tubing to provide a clear airway throughout the experiment. A midline abdominal incision was made and the left and right ureters were isolated. The ureters were ligated distally (to prevent escape of fluids from the bladder) and cannulated proximally with PE10 tubing. The incision was closed using 4-0 silk sutures, leaving the PE10 lines routed to the exterior for the elimination of urine. The bladder was canulated via the transurethral route using PE50 tubing inserted 2.5 cm beyond the urethral opening. This cannula was secured to the tail using tape and connected to a pressure transducer. To prevent leakage from the bladder, the cannula was tied tightly to the exterior urethral opening using 4-0 silk.\nTo initiate the micturition reflex, the bladder was first emptied by applying pressure to the lower abdomen, and then filled with normal saline in […] (maximum 2 ml) until spontaneous bladder contractions occurred (typically 20-40 mmHg at a rate of one contraction every 2 to 3 minutes. Once a regular rhythm was established, vehicle (saline) or Test Compounds were administered i.v. or i.p. to explore their effects on bladder activity. The 5-HT1A antagonist WAY-100635 was given as a positive control. Data were expressed as contraction interval (in seconds) before drug application (basal), or after the application of vehicle or test article."}, "human MCH1 receptor [2]": {"molecular_target": "T1, human MCH1 receptor (Homo sapiens, UniProt Q99705)", "T1 sequence (Q99705 whole entry)": "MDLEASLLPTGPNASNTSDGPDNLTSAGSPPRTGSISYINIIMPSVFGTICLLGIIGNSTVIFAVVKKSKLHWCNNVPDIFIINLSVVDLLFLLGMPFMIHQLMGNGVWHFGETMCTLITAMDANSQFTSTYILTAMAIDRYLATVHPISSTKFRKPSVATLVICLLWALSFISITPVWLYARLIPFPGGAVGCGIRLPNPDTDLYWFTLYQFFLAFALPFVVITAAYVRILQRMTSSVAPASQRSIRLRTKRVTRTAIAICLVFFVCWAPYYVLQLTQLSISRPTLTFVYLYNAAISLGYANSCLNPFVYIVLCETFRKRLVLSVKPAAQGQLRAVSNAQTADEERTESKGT", "format": "cell-based", "parameters": "expressed in transfected cells; host or cells: COS-7", "settings": "linear regression, r^2=0.94", "protocol": "Guidelines for cell preparation and assay of the second messenger inositol phosphate (IP) are described below for a typical protocol involving transiently transfected Cos-7 cells; For a 96 well microplate format assay, cells are plated at 70,000 cells per well and allowed to incubate for 24 hours after the transfection procedure. The cells are then labeled with 0.5 μCi [^3H]myo-inositol per micro-well over night at 37° C., 5% CO2. Immediately before the assay, the medium is removed and replaced with 90 μl PBS containing 10 mM LiCl. The plates are then incubated for 15 minutes at 37° C., […]. Following the incubation, the transfectants are challenged with agonist (10 μl/well; 10× concentration) for 30 minutes at 37° C., 5% CO2. The challenge is terminated and the cells lysed by the addition of 100 μl cold 5% v/v trichloroacetic acid (TCA), followed by an incubation at 4° C. for greater than 30 minutes. Total IPs are isolated from the lysate by ion exchange chromatography. Briefly, the lysed contents of the wells are transferred to a Multiscreen HV filter plate (Millipore) containing 100 μl Dowex AG1-X8 suspension (50% v/v, water:resin) (200-400 mesh, formate form). The filter plates are placed on a vacuum manifold to wash and elute the resin bed. Each well is first washed 2 times with 200 μl 5 mM myoinositol. Total [^3H]IPs are eluted with 75 μl of 1.2 M ammonium formate/0.1 M formic acid into Wallac 96-well plates. 200 μl of SuperMix scintillation cocktail is added to each well, mixed well, allowed to equilibrate and counted on a Micro Beta Trilux scintillation counter. (Note: The assay may be scaled to a 24 well format by simple adjustment of reagent volumes and employing individual chromatographic columns.)\nThe expression vector (pEXJ) containing the MCH1 cDNA was transfected by electroporation into Cos-7 cells in combination with an expression vector (pEXJ) containing the Gα16 subunit."}, "[3]": {"test_system": "micturition reflex, conscious male Sprague Dawley rats", "test": "Continuous Slow Transvesicular Infusion (CSTI) rat model", "format": "in vivo", "parameters": "key to Effect of MCH1 antagonist in the CSTI model: B = Produced an increase in bladder capacity in rats relative to baseline capacity"}, "human MCH1 receptor [4]": {"molecular_target": "T1, human MCH1 receptor", "test": "Saturation and competition binding of [3H]Compound 10, membranes of Cos-7 cells transfected with MCH1", "parameters": "expressed in transfected cells; host or cells: COS-7", "settings": "0.4 nM [3H]Compound 10; read-out: IC50, displacement of specific [3H]Compound 10 binding", "protocol": "Saturation equilibrium binding of [3H]Compound 10 to the human MCH1 receptor. Membrane preparations from Cos-7 cells transfected with MCH1 were incubated with varying concentrations of [3H]Compound 10 (SA: 56 Ci/mmol) at room temperature for 90 min, in a volume of 0.250 ml. The reaction was terminated by filtration in GF/C filters, and the radioactivity determined by scintillation counting. Non-specific binding was defined as the amount of radioactivity retained in the filter after incubating the reaction mixture in the presence of unlabeled Compound 10 ([…]).\nCompetition binding of [3H]Compound 10 to the human MCH1 receptor. […] The reaction was terminated by filtration in GF/C filters and the radioactivity bound to the membrane was determined by scintillation counting.\n[3H]Compound 10 was tested for its ability to bind to membrane preparations of cells expressing the human MCH1 receptor."}},
  "note": "pIC50: −log10 of the molar value.",
  "data": [
    {"smiles": "COCC1=C(C(=O)OC)[C@H](c2ccc(F)c(F)c2)N(C(=O)NCCCN2CCC(c3cccc(NC(C)=O)c3)CC2)C(=O)N1", "note": "[Example 10, (+)-1,2,3,6-TETRAHYDRO-1-{N-[4-(3,-ACETAMIDO)-PHENYLPIPERIDIN-1-YL]PROPYL}CARBOXAMIDO-4-METHOXYMETHYL-6-(3,4-DIFLUORO-PHENYL)-2-OXOPYRIMIDINE-5-CARBOXYLIC ACID METHYL ESTER]", "values": [
      {"measurement": "Effect of MCH1 antagonist in the DIRC model", "setting": "[1]", "result": "A"},
      {"measurement": "slope of the Schild plot", "setting": "human MCH1 receptor [2]", "result": "0.97±0.2"},
      {"measurement": "bladder capacity (% basal)", "setting": "[3]; 0.03 mg/kg, p.o., n=6 each, p<0.05", "result": "Significantly different from corresponding vehicle control"},
      {"measurement": "Effect of MCH1 antagonist in the CSTI model", "setting": "[3]; bladder capacity, intragastric", "result": "B"},
      {"measurement": "pIC50", "setting": "human MCH1 receptor [4]", "result": 9.48}
    ]}
  ]
}
